Data taken from patent publication US20260199267A1, “METHOD FOR PREPARING ENDO-C[…] FROM VEGETABLE OILS USING LIPASE AND USE THEREOF” (KOREA RESEARCH INSTITUTE OF BIOSCIENCE AND BIOTECHNOLOGY, priority 2022, published 2026).

Columns and labels:
Assay type in all cases: cell-based
[1] = molecular target: cannabinoid receptor 2 (CB2) (Homo sapiens, UniProt P34972); assay: agonist effect on cannabinoid receptor, cAMP measurement; conditions: CB2, concentration-response graph
Experimental: The efficacy was evaluated by measuring the amount of cyclic adenosine monophosphate (cAMP) generated from adenosine triphosphate (ATP) through the activation of adenylyl cyclase, which is triggered by G-protein alpha (G-protein a) as part of the stepwise signal transduction pathway initiated upon the binding of the test sample to the receptor. The efficacy was evaluated by measuring the amount of cyclic adenosine monophosphate (cAMP) generated from adenosine triphosphate (ATP) through G-protein alpha (G-protein a), which is activated by the binding of the sample to the receptor as part of the stepwise signal transduction pathway, and adenylyl cyclase, which is activated by G-protein a.

[2] = tested on: IL-1β production in LPS-treated RAW 264.7 cells; assay: pro-inflammatory cytokine production, ELISA; conditions: reference inhibitor, concentration not given, 24 h
Experimental: (§1) RAW 264.7 cells were dispensed into a 24-well plate at a density of […], incubated for 24 hours, and then treated with a non-cytotoxic concentration of the sample and LPS ([…]), followed by an additional 24-hour incubation. The cell culture was centrifuged at 5,000 rpm for 5 minutes, and the supernatant was collected. The levels of […] (FIG. 88), IL-6 (FIG. 89), and TNF-α (FIG. 90) were then measured using an ELISA kit according to the manufacturer's instructions.

[3] = tested on: IL-6 production in LPS-treated RAW 264.7 cells; assay: pro-inflammatory cytokine production, ELISA; conditions: reference inhibitor, concentration not given, 24 h
Experimental: as §1

[4] = tested on: TNF-α production in LPS-treated RAW 264.7 cells; assay: pro-inflammatory cytokine production, ELISA; conditions: reference inhibitor, concentration not given, 24 h
Experimental: as §1

cannabinoid receptor 2 (CB2), sequence (P34972 whole entry): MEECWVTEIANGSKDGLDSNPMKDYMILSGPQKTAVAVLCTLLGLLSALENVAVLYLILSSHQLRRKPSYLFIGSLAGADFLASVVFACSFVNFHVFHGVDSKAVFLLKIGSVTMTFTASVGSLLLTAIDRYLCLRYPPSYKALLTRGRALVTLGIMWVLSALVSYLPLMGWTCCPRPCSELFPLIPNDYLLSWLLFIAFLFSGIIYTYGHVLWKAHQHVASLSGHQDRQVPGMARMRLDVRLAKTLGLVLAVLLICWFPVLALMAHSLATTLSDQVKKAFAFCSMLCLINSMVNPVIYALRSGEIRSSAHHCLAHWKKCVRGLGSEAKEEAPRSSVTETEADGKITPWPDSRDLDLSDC

Row | Compound | Graph Min [1] | decrease of IL-1β production [2] [%] | decrease of IL-6 production [3] [%] | decrease of TNF-α production [4] [%]
1 | CCCCCCC(C)(C)c1ccc([C@@H]2C[C@H](O)CC[C@H]2CCCO)c(O)c1 [CP55940] | 5.4524 | – | – | –
2 | N.S=C(S)N1CCCC1 [APDTC] | – | 45.39 | 47.12 | 20.28
